Experiments:
[1] = molecular target: T1, Ole1 (Saccharomyces cerevisiae, UniProt P21147); experiment: Growth inhibition of yeast strain expressing Ole1 as sole desaturase; format: cell-based; conditions: yeast strain expressing Ole1 as sole desaturase
T1 construct: expressed in transfected cells; host or cells: S. cerevisiae ole1Δ strain (W303 pdr1Δ pdr3Δ background), plasmid pRS316 with TDH3 promoter and CYC1 terminator
T1 sequence (P21147 1-510): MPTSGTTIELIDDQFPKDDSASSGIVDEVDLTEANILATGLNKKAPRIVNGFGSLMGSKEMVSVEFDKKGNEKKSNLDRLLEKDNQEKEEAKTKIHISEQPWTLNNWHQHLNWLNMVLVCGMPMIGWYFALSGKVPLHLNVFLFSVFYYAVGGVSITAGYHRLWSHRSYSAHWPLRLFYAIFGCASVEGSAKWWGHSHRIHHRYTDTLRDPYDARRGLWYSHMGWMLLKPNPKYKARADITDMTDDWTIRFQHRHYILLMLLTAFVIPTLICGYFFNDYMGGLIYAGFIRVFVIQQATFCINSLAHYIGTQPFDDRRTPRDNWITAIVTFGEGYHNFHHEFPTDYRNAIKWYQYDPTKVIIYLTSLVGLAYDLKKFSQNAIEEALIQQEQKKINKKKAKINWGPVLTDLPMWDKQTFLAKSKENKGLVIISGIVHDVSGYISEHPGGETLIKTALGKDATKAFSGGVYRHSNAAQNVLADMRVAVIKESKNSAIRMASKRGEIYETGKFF
Procedure, shortened: (§1)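 Yeast ole1Δ strain (W303 pdr1Δ pdr3Δ background) carrying plasmid-borne Ole1, SCD1 or SCD5 as sole desaturase was grown in uracil-lacking media, pre-cultured in raffinose for 6 h, then seeded in galactose medium with compound in DMSO. Growth was read as OD600 after 30° C. incubation: 24 h for Ole1, 40 h for SCD1/SCD5.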

[2] = molecular target: T2, SCD1 (Homo sapiens, UniProt O00767); experiment: Growth inhibition of humanized yeast strain expressing SCD1 as sole desaturase; format: cell-based; conditions: humanized yeast strain expressing SCD1
T2 construct: host or cells: S. cerevisiae ole1Δ strain (W303 pdr1Δ pdr3Δ background), plasmid pRS316 with TDH3 promoter and CYC1 terminator
T2 sequence (O00767 1-359): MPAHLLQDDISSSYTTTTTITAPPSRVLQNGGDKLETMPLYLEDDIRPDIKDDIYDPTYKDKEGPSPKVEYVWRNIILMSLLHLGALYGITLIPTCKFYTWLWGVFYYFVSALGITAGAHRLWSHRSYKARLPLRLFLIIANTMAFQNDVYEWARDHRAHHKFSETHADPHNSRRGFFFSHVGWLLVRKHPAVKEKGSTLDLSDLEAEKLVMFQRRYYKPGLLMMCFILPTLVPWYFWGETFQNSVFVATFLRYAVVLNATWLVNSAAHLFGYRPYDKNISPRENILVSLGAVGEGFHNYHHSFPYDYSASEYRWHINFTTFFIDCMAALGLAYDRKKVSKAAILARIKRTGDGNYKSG
Procedure, shortened: as §1

[3] = molecular target: T3, SCD5 (Homo sapiens, UniProt Q86SK9); experiment: Growth inhibition of humanized yeast strain expressing SCD5 as sole desaturase; format: cell-based; conditions: humanized yeast strain expressing SCD5
T3 construct: host or cells: S. cerevisiae ole1Δ strain (W303 pdr1Δ pdr3Δ background), plasmid pRS316 with TDH3 promoter and CYC1 terminator
T3 sequence (Q86SK9 1-330): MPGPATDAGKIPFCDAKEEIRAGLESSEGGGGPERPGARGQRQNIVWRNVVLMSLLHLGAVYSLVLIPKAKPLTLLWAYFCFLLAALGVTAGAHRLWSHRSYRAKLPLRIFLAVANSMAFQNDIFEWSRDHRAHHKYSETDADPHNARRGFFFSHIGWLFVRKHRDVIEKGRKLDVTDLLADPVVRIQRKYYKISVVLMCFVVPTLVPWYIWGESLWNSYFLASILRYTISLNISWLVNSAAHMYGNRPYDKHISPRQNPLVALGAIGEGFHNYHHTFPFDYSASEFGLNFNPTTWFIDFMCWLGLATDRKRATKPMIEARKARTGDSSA
Procedure, shortened: as §1

[4] = tested on: yeast strains expressing the human ApoE4; experiment: Yeast ApoE4 toxicity rescue assay (OD600 growth); conditions: 24 h; for EC50: read-out: ApoE4 EC50; for Emax: read-out: ApoE4 Emax
From the text: The induced expression of α-synuclein and ApoE4 confers cytotoxicity, thus enabling the identification of compounds that can restore cell viability. This instantaneous/synchronous induction of α-synuclein and ApoE4 can be achieved due to the following expression control. In glucose-containing media, gene expression from the GAL1 promoter is ‘off’ and actively repressed by additional epigenetic factors. In raffinose, expression is ‘off’, but the promoter not actively repressed. Upon transition to galactose-containing media, the promoter is instantaneously turned ‘on’ to achieve robust and synchronous induction of α-synuclein or ApoE4 expression. This highly regulated induction provides a robust window for the determination of both efficacy (amplitude of protective effect) and potency (concentration of protective effect) of cytoprotective compounds.
Re-suspended compound stocks were subsequently arrayed into 384 well compound plates using automated pipetting. All other wells not receiving stock compound were filled with 10 μL of 100% DMSO using an automated plate filler (Multidrop Combi). An 11 point, 2-fold serial dilution was then performed using the robotic platform. Compound assay plates were covered with foil and stored at −20° C. until use.
Each strain was handled according to standard protocols and cultured in media composed of CSM (complete synthetic media), YNB (yeast nitrogenous base), and a 2% (w/v) carbon source (either glucose, raffinose, or galactose).
In a standard yeast assay, a single-use aliquot of cells was thawed on ice and diluted into CSM/glucose (5 mL). Cultures were grown for 8 hours at 30° C. This pre-growth enables the yeast to exit the thaw and begin to grow without expressing aSyn or ApoE4. After 8 hours, cell density (OD600) was determined and cultures diluted to an OD600 of 0.01 in CSM/raffinose for an overnight culture phase at 30° C. During this period, the active glucose repression of the GAL1 promoter was relieved; however, expression of the α-Syn/ApoE4 genes were not yet induced. After ˜16 hours of growth, cultures attain an OD600 of 0.4-0.8 and were ready to apply to assay plates containing compound.
Compound profiling assays were executed in clear-bottom 384 well plates. First, compound plates were thawed at room temperature for 45′, centrifuged at 1,000×g for 1 minute, and the foil removed. Clear 384 well assay plates were then filled with 15 μL of CSM/galactose. […] The pin tool was washed iteratively with both 50% DMSO and 100% ethanol between each assay plate. After delivering compound to each assay plate, the overnight CSM/raffinose aSyn or ApoE4 cultures were added at a 2X cell density (0.04 for aSyn and 0.08 for ApoE4) in CSM/galactose to achieve a final assay OD600 of 0.02 and 0.04 for aSyn and ApoE, respectively. The cultures (15 μL per well) were then dispensed to the compound -containing 384 well assay plates using an automated plate filler. Plates were incubated in a humidified 30° C. incubator for 40 or 24 hours for aSyn and ApoE4, respectively. The ODsoo of each assay plate was then read with a microplate reader (e.g., Perkin Elmer Envision).
The efficacy and potency of compounds were calculated according to the following. Raw data (OD600 values) were first background corrected to account for OD600 contributed by the plate and media itself. The efficacy (percent above DMSO, herein referred to as “Emax”) was calculated according to the equation: (Experimental well−DMSO control well)/(DMSO control well)*100. […] Normalized dose-response data was fit with a logistic regression curve using Spotfire (TIBCO), or similar curve-fitting software package. EC50 values were then reported along with EMax to provide both efficacy and potency measures for each analog and enable further compound design.

[5] = tested on: yeast strains expressing the human α-synuclein; experiment: Yeast α-synuclein toxicity rescue assay (OD600 growth); conditions: 40 h; for EC50: read-out: α-Syn EC50; for Emax: read-out: α-Syn Emax

Structure (SMILES) | IC50 [1] | OLE1 % Max Inhibition [1] | IC50 [2] | SCD1 % Max Inhibition [2] | IC50 [3] | SCD5 % Max Inhibition [3] | EC50 [4] | Emax [4] | EC50 [5] | Emax [5]
COc1ccc(-c2noc(C3CCN(C(=O)N4CCCCC4)CC3)n2)cc1OC [Compound 54] | > 45 µM | 85.34% | > 45 µM | 82.41% | > 45 µM | 47.60% | 17.3 µM | 240% | 9.1 µM | 95%
Cc1cccc(-c2nc(C3CCN(C(=O)[C@H]4CC(=O)N(c5ccc(C)c(C)c5)C4)CC3)no2)c1 (single isomer, unassigned) [compound 73] | > 45 µM | – | 33.7 µM | – | > 45 µM | – | – | 303% | 15.8 µM | 151%
COc1ccc(-c2noc(C3CCN(C(=O)CNC(=O)c4cccc(Cl)c4)CC3)n2)cc1OC [compound 26] | > 45 µM | – | > 45 µM | – | 24.5 µM | – | 0.377 µM | 811% | 0.042 µM | 608%
COc1ccc(-c2noc(C3CCN(C(=O)CNC(=O)c4ccccc4)CC3)n2)cc1 [compound 10] | > 45 µM | – | > 45 µM | – | > 45 µM | – | 4.61 µM | 736% | 4.87 µM | 392%
Cc1cccc(-c2noc(C3CCN(C(=O)C4CC(=O)N(c5ccc(C)c(C)c5)C4)CC3)n2)c1 (stereo not shown) [compound 3] | 38.5 µM | – | > 45 µM | – | > 45 µM | – | – | 200% | 17.8 µM | 307%
CCOc1ccc(-c2noc(C3CCN(C(=O)c4cnc(-c5ccccc5)[nH]4)CC3)n2)cc1OC [compound 98] | > 45 µM | – | > 45 µM | – | 41.1 µM | – | 9.75 µM | 650% | 8.01 µM | 386%
COc1ccc(-c2noc(C3CCN(C(=O)COCc4ccccc4)CC3)n2)cc1OC [Compound 31] | > 45 µM | 79.60% | > 45 µM | 81.19% | 25.4 µM | 24.26% | 9.81 µM | 721% | 7.51 µM | 438%
COc1ccc(-c2noc(C3CCN(C(=O)[C@@H](C)NC(=O)c4ccccc4)CC3)n2)cc1OC (single isomer, unassigned) [Compound 60] | > 45 µM | 2.91% | > 45 µM | 72.03% | 41.1 µM | 57.19% | 0.119 µM | 795% | 0.032 µM | 605%
O=C(NCC(=O)N1CCC(c2nc(-c3ccc(F)c(F)c3)no2)CC1)c1ccccc1 [compound 24] | > 45 µM | – | > 45 µM | – | 30 µM | – | 13.3 µM | 301% | 5.13 µM | 76%
COc1cccc(-c2noc(C3CCN(C(=O)CNC(=O)c4ccccc4)CC3)n2)c1 [compound 11] | > 45 µM | – | > 45 µM | – | > 45 µM | – | – | 600% | 5.89 µM | 309%
COc1ccc(-c2noc(C3CCN(C(=O)CN(C)C(=O)c4ccccc4)CC3)n2)cc1OC [compound 22] | 40.5 µM | – | – | – | 30 µM | – | – | 372% | 8.42 µM | 334%
COc1ccc(-c2noc(C3CCN(C(=O)C4CC(=O)N(c5ccccc5)C4)CC3)n2)cc1OC (stereo not shown) [compound 18] | > 45 µM | – | – | – | > 45 µM | – | 1.51 µM | 826% | 0.266 µM | 452%
COc1ccc(-c2noc(C3CCN(C(=O)[C@@H]4CC(=O)N(c5ccccc5)C4)CC3)n2)cc1OC [compound 66] | > 45 µM | – | – | – | – | – | 21.2 µM | 790% | 11.1 µM | 350%
COc1ccc(-c2noc(C3CCN(C(=O)[C@@H]4CC(=O)N(c5ccc(C)c(C)c5)C4)CC3)n2)cc1OC [compound 68] | > 45 µM | – | – | – | – | – | 3.12 µM | 775% | 1.86 µM | 652%
